Tests used:
[1] = target: T1, Estrogen receptor (Homo sapiens, UniProt P03372); test: biochemical
T1 sequence (P03372 whole entry): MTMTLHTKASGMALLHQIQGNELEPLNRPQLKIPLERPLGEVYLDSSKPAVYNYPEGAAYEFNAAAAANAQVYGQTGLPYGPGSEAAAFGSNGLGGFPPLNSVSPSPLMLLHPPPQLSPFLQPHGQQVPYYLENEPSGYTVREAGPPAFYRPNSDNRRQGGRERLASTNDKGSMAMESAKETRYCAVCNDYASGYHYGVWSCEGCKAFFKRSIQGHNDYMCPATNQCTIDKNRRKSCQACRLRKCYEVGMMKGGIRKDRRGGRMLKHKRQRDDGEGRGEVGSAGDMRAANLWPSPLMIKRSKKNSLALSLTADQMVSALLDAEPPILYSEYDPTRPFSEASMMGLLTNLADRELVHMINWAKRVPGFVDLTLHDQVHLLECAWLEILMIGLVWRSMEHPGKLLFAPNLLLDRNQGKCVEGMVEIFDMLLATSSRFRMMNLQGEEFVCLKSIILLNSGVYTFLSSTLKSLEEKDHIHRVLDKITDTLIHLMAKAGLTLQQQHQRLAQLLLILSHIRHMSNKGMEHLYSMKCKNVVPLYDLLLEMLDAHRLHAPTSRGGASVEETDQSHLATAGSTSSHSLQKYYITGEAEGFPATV

[2] = target: Cytochrome P450 2C9 (Homo sapiens, UniProt P11712)
Chain of Cytochrome P450 2C9 (P11712 whole entry): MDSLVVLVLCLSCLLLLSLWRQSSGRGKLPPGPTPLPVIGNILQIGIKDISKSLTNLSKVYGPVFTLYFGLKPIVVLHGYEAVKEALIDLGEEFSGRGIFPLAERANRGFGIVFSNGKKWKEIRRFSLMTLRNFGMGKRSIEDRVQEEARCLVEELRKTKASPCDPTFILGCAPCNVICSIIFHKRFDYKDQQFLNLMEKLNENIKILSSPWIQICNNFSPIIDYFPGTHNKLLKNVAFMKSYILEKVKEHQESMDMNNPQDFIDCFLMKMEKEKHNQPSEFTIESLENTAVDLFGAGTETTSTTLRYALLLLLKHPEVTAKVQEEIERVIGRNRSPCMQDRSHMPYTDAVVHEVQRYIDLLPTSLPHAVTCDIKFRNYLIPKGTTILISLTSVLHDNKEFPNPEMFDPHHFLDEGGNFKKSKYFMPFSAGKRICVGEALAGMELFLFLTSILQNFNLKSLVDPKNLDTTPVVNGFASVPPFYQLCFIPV

[3] = target: T2, Cytochrome P450 1A2 (Homo sapiens, UniProt P05177)
T2 sequence (P05177 whole entry): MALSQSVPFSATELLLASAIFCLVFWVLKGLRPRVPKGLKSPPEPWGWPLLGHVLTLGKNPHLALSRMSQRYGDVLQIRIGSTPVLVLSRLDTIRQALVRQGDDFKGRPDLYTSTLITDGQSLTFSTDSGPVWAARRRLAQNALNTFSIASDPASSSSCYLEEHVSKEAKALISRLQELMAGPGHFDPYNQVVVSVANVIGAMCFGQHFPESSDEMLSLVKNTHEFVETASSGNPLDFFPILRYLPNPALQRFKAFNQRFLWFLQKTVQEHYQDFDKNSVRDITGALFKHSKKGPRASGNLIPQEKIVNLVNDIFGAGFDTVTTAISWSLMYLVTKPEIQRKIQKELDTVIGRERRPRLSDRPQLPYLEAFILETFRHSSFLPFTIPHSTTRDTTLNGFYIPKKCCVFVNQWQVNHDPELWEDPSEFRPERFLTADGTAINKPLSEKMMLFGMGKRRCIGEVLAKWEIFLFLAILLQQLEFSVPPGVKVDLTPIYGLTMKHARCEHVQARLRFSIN

[4] = target: Cytochrome P450 2C19 (Homo sapiens, UniProt P33261)
Chain of Cytochrome P450 2C19 (P33261 whole entry): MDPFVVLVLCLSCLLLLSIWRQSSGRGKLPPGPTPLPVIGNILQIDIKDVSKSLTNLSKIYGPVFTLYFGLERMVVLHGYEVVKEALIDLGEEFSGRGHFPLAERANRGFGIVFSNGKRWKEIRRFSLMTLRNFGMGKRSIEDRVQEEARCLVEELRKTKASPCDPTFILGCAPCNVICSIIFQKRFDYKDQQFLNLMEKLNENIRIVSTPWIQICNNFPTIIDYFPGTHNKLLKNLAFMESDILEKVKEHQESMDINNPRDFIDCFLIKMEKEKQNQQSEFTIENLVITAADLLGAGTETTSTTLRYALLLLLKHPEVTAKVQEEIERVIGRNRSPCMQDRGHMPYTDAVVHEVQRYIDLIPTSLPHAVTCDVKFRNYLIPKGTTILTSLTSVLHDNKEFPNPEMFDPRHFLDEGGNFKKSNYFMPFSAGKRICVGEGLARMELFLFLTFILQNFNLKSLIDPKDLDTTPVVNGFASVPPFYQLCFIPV

## C#C[C@]1(O)CC[C@H]2[C@@H]3CCC4=Cc5oncc5C[C@]4(C)[C@H]3CC[C@@]21C [DANAZOL]
[1]
  IC50: 17800 nM
  Ki: 5080 nM

## CC(=O)O[C@]1(C(C)=O)CC[C@H]2[C@@H]3C=C(C)C4=CC(=O)CC[C@]4(C)[C@H]3CC[C@@]21C [MEGESTROL ACETATE]
[2]
  IC50: 10000 nM

## COc1cc(CNC(=O)CCCC/C=C/C(C)C)ccc1O [CAPSAICIN]
[3]
  IC50: 3000 nM

## O=C(/C=C/c1ccc(O)c(O)c1)OCCc1ccccc1 [CAFFEIC ACID PHENETHYL ESTER]
[1]
  IC50: 7910 nM
  Ki: 2260 nM

## O=C(c1ccccc1Cl)N1CCC(Cc2ccccc2)CC1
[4]
  IC50: 200 nM
[2]
  IC50: 2000 nM

## CC[C@]1(O)CC[C@H]2[C@@H]3CCC4=CCCC[C@@H]4[C@H]3CC[C@@]21C
[4]
  IC50: 1290 nM
[1]
  IC50: 1120 nM
  Ki: 320 nM

## COc1ccc2cc(CCC(C)=O)ccc2c1 [NABUMETONE]
[3]
  IC50: 5000 nM

## COc1ccc(Cc2nccc3cc(OC)c(OC)cc23)cc1OC [PAPAVERINE]
[4]
  IC50: 762 nM
